# Experimental data reported in ChEMBL document CHEMBL1201862, “PubChem BioAssay data set” (2004).
# Active and inactive are the calls of the source.
# Key:
# [1] = biological target: Cytochrome P450 2C9 (Homo sapiens, UniProt P11712)
# [2] = biological target: Cytochrome P450 2C19 (Homo sapiens, UniProt P33261); experiment: Cytochrome panel assay with activity outcomes. Panel member name: p450-cyp2c19 Compounds with AC50 equal or less than 10 uM are considered active; format: functional
# [3] = Trypanosoma cruzi growth suppression in host cells – NIH3T3 host cells, beta-gal luminescence, confirmation (AID 2044); format: functional, cell-based;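 also: intracellular parasites grown in NIH/3T3 mouse fibroblasts as host cells; luminescent beta-galactosidase reporter signal from transgenic T. cruzi replicating inside host cells; inhibitors lower the luminescence signal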
# [4] = NIH3T3 cell viability loss – ATP luminescence, mouse fibroblasts, counter-screen, dose response (AID 2010); format: functional, cell-based;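 also: cells exposed to compound for about 90 hours before reading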
# [5] = viability of uninfected HEp-2 cells – cell-based, HTS, cytotoxicity control for RSV inhibitor project, dose response (AID 2410); format: functional; conditions: human respiratory syncytial virus
# [6] = system: Streptococcus; experiment: GAS UMAA2166 growth inhibition – luminescence, BacTiterGlo, counter-screen for streptokinase expression inhibitor project, dose response (AID 1915); format: functional, organism-based;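 also: potency for reduction of bacterial viability or growth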
# [7] = system: Streptococcus sp. 'group A'; experiment: Streptococcus pyogenes SK(-)GAS viability under kanamycin – luminescence, BacTiterGlo, confirmation, counter-screen for streptokinase expression inhibitor project, dose response (AID 1900); format: functional, organism-based
# [8] = biological target: T1, Streptokinase A (Streptococcus pyogenes serotype M1, UniProt P10520); experiment: viability-normalized secreted streptokinase activity reduction – plasminogen activation absorbance, OD405, dose response (AID 1914); format: functional, Streptococcus pyogenes M1 GAS;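 also: secreted streptokinase activity via plasminogen activation per viability signal from cell pellet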
# T1 sequence (P10520 whole entry): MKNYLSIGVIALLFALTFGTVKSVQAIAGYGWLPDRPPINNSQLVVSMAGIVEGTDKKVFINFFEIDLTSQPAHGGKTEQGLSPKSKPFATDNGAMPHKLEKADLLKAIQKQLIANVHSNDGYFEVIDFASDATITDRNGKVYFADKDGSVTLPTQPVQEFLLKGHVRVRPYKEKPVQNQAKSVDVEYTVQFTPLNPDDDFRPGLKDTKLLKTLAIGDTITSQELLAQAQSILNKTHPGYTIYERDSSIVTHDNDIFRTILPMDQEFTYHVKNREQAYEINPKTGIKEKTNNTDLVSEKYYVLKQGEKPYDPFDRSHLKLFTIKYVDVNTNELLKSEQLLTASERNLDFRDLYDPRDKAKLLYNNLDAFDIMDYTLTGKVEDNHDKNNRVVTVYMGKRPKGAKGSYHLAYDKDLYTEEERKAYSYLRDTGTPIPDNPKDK
# [9] = biological target: Cytochrome P450 3A4 (Homo sapiens, UniProt P08684);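 also: CYP3A4 tested as one member of a cytochrome P450 panel screen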
# Chain of Cytochrome P450 3A4 (P08684 whole entry): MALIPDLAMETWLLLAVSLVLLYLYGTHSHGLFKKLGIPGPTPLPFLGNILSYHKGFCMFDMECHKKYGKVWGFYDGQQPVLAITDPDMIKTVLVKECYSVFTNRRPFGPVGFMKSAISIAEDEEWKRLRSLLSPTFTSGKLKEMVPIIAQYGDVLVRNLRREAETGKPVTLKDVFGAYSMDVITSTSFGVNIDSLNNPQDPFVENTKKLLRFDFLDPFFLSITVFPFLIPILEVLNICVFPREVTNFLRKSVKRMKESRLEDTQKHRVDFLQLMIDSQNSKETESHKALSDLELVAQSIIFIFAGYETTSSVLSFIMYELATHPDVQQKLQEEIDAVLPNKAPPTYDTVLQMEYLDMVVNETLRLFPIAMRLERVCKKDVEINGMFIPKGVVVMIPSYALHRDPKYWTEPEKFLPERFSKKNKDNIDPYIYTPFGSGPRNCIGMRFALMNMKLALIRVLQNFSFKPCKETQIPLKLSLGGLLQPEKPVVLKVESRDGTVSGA
# Chain of Cytochrome P450 2C9 (P11712 whole entry): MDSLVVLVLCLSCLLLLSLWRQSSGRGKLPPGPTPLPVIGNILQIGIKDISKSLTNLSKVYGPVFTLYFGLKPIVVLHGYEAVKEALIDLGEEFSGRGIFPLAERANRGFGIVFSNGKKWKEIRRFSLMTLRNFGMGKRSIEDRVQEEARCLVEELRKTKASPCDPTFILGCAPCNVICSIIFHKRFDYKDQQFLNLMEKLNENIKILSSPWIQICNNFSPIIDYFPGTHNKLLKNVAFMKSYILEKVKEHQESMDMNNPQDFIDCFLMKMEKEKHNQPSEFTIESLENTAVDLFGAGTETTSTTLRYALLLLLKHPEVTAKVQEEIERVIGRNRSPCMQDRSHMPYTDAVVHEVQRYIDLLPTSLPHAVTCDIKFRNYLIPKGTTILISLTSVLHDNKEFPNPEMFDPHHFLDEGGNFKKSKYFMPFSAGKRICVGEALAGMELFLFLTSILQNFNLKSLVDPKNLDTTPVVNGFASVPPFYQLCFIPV
# Chain of Cytochrome P450 2C19 (P33261 whole entry): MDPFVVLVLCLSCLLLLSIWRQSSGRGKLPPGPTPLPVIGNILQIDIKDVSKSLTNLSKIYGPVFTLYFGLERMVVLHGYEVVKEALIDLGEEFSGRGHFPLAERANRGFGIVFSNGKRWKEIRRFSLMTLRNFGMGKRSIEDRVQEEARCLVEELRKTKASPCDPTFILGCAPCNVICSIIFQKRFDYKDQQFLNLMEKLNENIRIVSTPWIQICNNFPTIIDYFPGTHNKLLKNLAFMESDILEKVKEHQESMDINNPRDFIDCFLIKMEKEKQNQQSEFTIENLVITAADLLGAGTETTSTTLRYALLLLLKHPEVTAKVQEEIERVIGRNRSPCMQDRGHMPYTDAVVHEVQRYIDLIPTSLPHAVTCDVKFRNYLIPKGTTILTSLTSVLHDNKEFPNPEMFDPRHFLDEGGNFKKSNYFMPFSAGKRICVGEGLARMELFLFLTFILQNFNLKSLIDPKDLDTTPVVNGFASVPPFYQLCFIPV
compound,measurement,setting,value
COc1ccc(Oc2ncc3nc(C)c(=O)n(C[C@H]4CCCO4)c3n2)cc1,AC50,[1],39.8 µM (inconclusive)
same,AC50,[2]; read-out: AC50,25.1 µM (inconclusive)
Cc1ccc(OC(=O)c2cccc(C(=O)Oc3ccc(C)cc3)n2)cc1,AC50,[2],inconclusive
CC(C)NCC(O)COCCOc1ccc(Br)cc1 (stereo not drawn),EC50,[3],1.1 µM (active)
same,EC50,[4],> 30 µM (not active)
Cc1ccc(C2c3c(C)nn(-c4ccc([N+](=O)[O-])cc4)c3N=C3C(=O)Nc4ccccc4N32)cc1 (stereo not drawn),EC50,[3],1.45 µM (active)
same,EC50,[4],> 60 µM (not active)
COc1cccc(-c2nc(NC3CC3)c3ccccc3n2)c1,AC50,[2]; read-out: AC50,10 µM (inconclusive)
O=C(c1ccco1)N1CCC[C@@]2(CCN(C(c3ccccc3)c3ccccc3)C2)C1,AC50,[1],31.6 µM (inconclusive)
Cc1c(C(O)CN2CCN(Cc3ccc4c(c3)OCO4)CC2)c2ccccc2n1C (stereo not drawn),EC50,[3],2.47 µM (active)
same,EC50,[4],> 60 µM (not active)
CC(=O)c1coc2c1cc(O)c1ccccc12,CC50,[5],> 50 µM (active)
CN(CCOc1ccccc1)C(=O)c1cc([N+](=O)[O-])cc([N+](=O)[O-])c1,EC50,[3],0.7 µM (active)
same,EC50,[4],> 30 µM (not active)
CCc1nc2ccccc2nc1O,CC50,[5],28.8 µM (active)
CCN1C(=O)N[C@@H](CCc2ccccc2)C(C(=O)OC)=C1C,CC50,[5],29.9 µM (active)
O=C(Cn1ccc(C(F)(F)F)n1)N=Nc1c(O)[nH]c2ccc(Br)cc12,CC50,[5],> 50 µM (active)
Cc1cccc(CSc2ncnc3c2cnn3Cc2ccccc2)c1,EC50,[6],> 150 µM (not active)
same,EC50,[7],23 µM (active)
same,EC50,[8],> 150 µM (not active)
CC1N(C)c2cc(NC(=O)c3ccco3)c(P(=O)(Nc3ccc([N+](=O)[O-])cc3)N3CCOCC3)cc2C1(C)C (stereo not drawn),CC50,[5],18 µM (active)
COc1ncc2nc(-c3cn(C)c4ccccc34)c(=O)n(Cc3ccc(F)cc3)c2n1,AC50,[2]; read-out: AC50,15.8 µM (inconclusive)
C=CCCN(C1CCCC1)S(=O)(=O)c1ccccc1Br,CC50,[5],> 50 µM (active)
C/C(CCC(=O)OC[C@@H]1O[C@H](C#Cc2ccccc2)C=C[C@@H]1Oc1ccc(C)cc1)=N/O[C@@H](C)CN1CCCCc2nc(C)c(C)cc21,AC50,[2]; read-out: AC50,1.26 µM (inconclusive)
O=C(c1ccccc1Cl)N1CCN(S(=O)(=O)c2cccs2)CC1,EC50,[6],> 150 µM (not active)
same,EC50,[7],> 150 µM (not active)
same,EC50,[8],> 150 µM (not active)
CCC1CCCCN1c1nc2c(C=O)c(C)nn2c2ccccc12 (stereo not drawn),CC50,[5],20.5 µM (active)
CCC/C=C(\CCC)C(NS(=O)(=O)CC12CCC(CC1=O)C2(C)C)c1ccc(C(=O)OC)cc1 (stereo not drawn),AC50,[2]; read-out: AC50,25.1 µM (inconclusive)
CCOC(=O)c1c(C)[nH]c(C(=O)COC(=O)c2cc(C)oc2C)c1C,CC50,[5],> 50 µM (active)
O=C(CCCN1C(=O)/C(=C\c2cccs2)SC1=S)Nc1cc([N+](=O)[O-])ccc1O,EC50,[6],> 150 µM (not active)
same,EC50,[7],4.29 µM (active)
same,EC50,[8],25.3 µM (active)
CN(C(=S)NC(=O)c1ccccc1)C1CCCCC1,EC50,[6],> 150 µM (not active)
same,EC50,[7],> 150 µM (not active)
same,EC50,[8],> 150 µM (not active)
O=C(C(Cc1ccccc1)N1C(=O)C2C3CCC(C3)C2C1=O)N1CCCCC1 (stereo not drawn),AC50,[2]; read-out: AC50,7.08 µM (inconclusive)
Fc1ccc(N2CCN(C3=Nc4cccc5cccc3c45)CC2)cc1,EC50,[3],1.74 µM (active)
same,EC50,[4],> 30 µM (not active)
CCn1c(SCC(=O)OC)nnc1C1CCCCC1,AC50,[2]; read-out: AC50,14.1 µM (inconclusive)
O=C(NCC1CCCO1)c1cc2c3ccccc3nc-2c(-c2cccc(Cl)c2)[nH]1 (stereo not drawn),EC50,[6],25.3 µM (active)
same,EC50,[7],4.12 µM (active)
same,EC50,[8],> 150 µM (not active)
CCN1CCN(S(=O)(=O)c2ccc(Cl)c(C(=O)Nc3nnc(CC(C)C)s3)c2)CC1,AC50,[1],25.1 µM (inconclusive)
same,AC50,[2]; read-out: AC50,39.8 µM (inconclusive)
CCc1c(C)nc(N)n2c(SCC(=O)Nc3ccccc3)nnc12,AC50,[2]; read-out: AC50,22.4 µM (inconclusive)
Cc1ccc2nc(O)c(COC(=O)C3CCCCC3)cc2c1,CC50,[5],> 50 µM (active)
CN(C(=S)NC(=O)c1ccccc1Br)C1CCCCC1,AC50,[9],2.51 µM (inconclusive)
